Source: US20220143103A1, “COMPOSITION FOR PREVENTING OR TREATING NEUROINFLAMMATORY DISORDERS, COMPRISING BEE VENOM EXTRACT AS ACTIVE INGREDIENT” (priority 2019, published 2022)

Key:
Assay type in all cases: cell-based
[1] = tested on: iNOS, COX-2, IBA-1 in BV-2 cells; test: Western blot of iNOS, COX-2, IBA-1 in LPS-treated BV-2 cells; conditions: BV-2, LPS 1 μg/mL
Procedure: To detect target proteins, specific antibodies to iNOS, IBA-1, GFAP, APP and BACE1 (1:1000; Abcam, Inc., Cambridge, UK), COX-2 (1:1000; Novus Biologicals, Inc., CO, USA), c-Jun N-terminal kinase (JNK), extracellular signal-regulated kinase (ERK) 1/2, p-p38 and p38 ([…]; Cell signaling Technology, Inc., MA, USA), p-STAT3, STAT3, p-ERK1/2, p-JNK, and β-actin (1:200; Santa Cruz Biotechnology Inc., Santa Cruz, Calif., USA) were used.
(§1) Blots were incubated with corresponding conjugated secondary antibodies such as anti-mouse, anti-rabbit and anti-goat obtained from Santa Cruz Biotechnology Inc. (Santa Cruz, Calif., USA). Immunoreactive proteins were detected with an enhanced chemiluminescence Western blotting detection system.
(§2) Microglia BV-2 was cultured and treated simultaneously with LPS (1 μg/mL) or Aβ1-42 (2.5 μM) and various concentrations of bvPLA2 (0.01, 0.1, 1 μg/mL) dissolved in PBS. Cells were harvested after 24 hours to measure cell viability, Nitric Oxide concentration, and a level of pro-inflammatory cytokines.

[2] = tested on: NF-κB (p65, p50, p-IκBα) in BV-2 cells; test: Western blot of NF-κB subunits and p-IκBα in LPS-treated BV-2 cells; conditions: BV-2, LPS 1 μg/mL, bvPLA2 100 ng/mL, NF-κB inhibitor; FIG. 7B
Procedure: as §1, §2
To determine whether or not bvPLA2 affects inhibition of NF-κB translocation, the level of the NF-κB subunit in the nucleus of BV-2 cells was measured by Western blot.

[3] = tested on: TNF-α, IL-1β, IL-6, IL-4, TGF-β in BV-2 cells; test: qRT-PCR of cytokines in LPS-treated BV-2 cells; conditions: BV-2, LPS 1 μg/mL
Procedure: Pro-inflammatory and anti-inflammatory cytokine levels were measured by quantitative reverse transcription polymerase chain reaction (qRT-PCR). Total RNA was extracted from hippocampal tissue using RiboEX (Geneall biotechnology, Seoul, Korea), and cDNA was synthesized using a High-Capacity cDNA Reverse Transcription kit (Thermo Scientific, Waltham, Mass., USA).
qRT-PCR was performed on a 7500 real-time PCR system (Applied Biosystems, Foster City, Calif., USA) for custom designed primers, and β-actin was used as a house-keeping control using a HiPi Real-Time PCR SYBR green master mix (ELPIS biotech, Daejeon, Korea).
A cycling condition consisting of an initial denaturation step of 3 minutes at 94° C., a denaturation step of 30 seconds at 94° C., an annealing step of 30 seconds at 60° C., and an extension step of 1 minute at 72° C., was continued until 40 cycles. Values obtained for target gene expression were normalized to β-actin and quantified for expression in control samples.
Each sample was performed with the primers in Table 2 below.
as §2

β-secretase = β-secretase activity assay in LPS-treated BV-2 cells; conditions: BV-2, LPS 1 μg/mL, Stattic 1 μM, bvPLA2 1 μg/mL, 24 h; FIG. 21B
Procedure: β-secretase activity in the mouse brain was determined using a commercially available β-secretase activity assay kit (Abcam, Inc., Cambridge, Mass., USA). A solubilized membrane was extracted from brain tissues using a β-secretase extraction buffer, incubated on ice for 1 hour, and centrifuged at 5000×g for 10 minutes at 4° C. to collect supernatant.
A total of 50 μL of sample (100 μg of total protein) or blank (50 μL of β-secretase extraction buffer) was added to each well (96-well plate), then 50 μL of 2× reaction buffer and 2 μL of β-secretase substrate were incubated for 1 hour in a dark room at 37° C. Fluorescence was read at excitation and emission wavelengths of 335 and 495 nm, respectively, using a fluorescence spectrometer (Gemini EM; Molecular Devices, CA, USA).
as §2

Aβ1-42 in BV-2 cells = test: Aβ1-42 ELISA in LPS-treated BV-2 cells; conditions: BV-2, LPS 1 μg/mL, Stattic 1 μM, 24 h
Procedure: Lysates of brain tissue were obtained through a protein extraction buffer containing protease inhibitors. Aβ1-42 and Aβ1-40 levels were measured using the specific mouse β-amyloid peptide 1-42 enzyme-linked immunosorbent assay (ELISA) kit (CSB-E10787m; CUSABIO, Houston, USA) and mouse β-amyloid peptide 1-40 ELISA kit (CSB-E08300m; CUSABIO, Houston, USA), respectively.
To investigate the effect of bvPLA2 on amyloidogenesis in vitro, BV-2 cells were treated with LPS and various concentrations of bvPLA2 (0.01, 0.1, 1 μg/mL) for 24 hours. Aβ1-42 levels in BV-2 cells were determined by ELISA.
The inhibitory effects of a STAT3 inhibitor (Stattic) and the bee venom extracts on amyloid production and neuroinflammation were tested in BV-2 cells. To determine the combination effect of bvPLA2 and Stattic on amyloidogenesis and neuroinflammation in vitro, BV-2 microglia were treated with LPS (1 μg/m L), Stattic (1 μM), or bvPLA2 (1 μg/mL) for 24 h.

Compound | levels of iNOS and COX-2 (Western blot) ([1]; bvPLA2 100 ng/mL, NF-κB inhibitor, FIG. 7A) | levels of p-IκBα, p65, and p50 [2] | expression levels of TNF-α, IL-1β, and IL-6 (qRT-PCR) ([3]; bvPLA2 100 ng/mL, NF-κB inhibitor, FIG. 7C) | β-secretase activity (β-secretase) | intracellular levels of iNOS and COX-2 (Western blot) ([1]; Stattic 1 μM, bvPLA2 1 μg/mL, 24 h, FIG. 21D) | expression levels of TNF-α, IL-1β, and IL-6 (qRT-PCR) ([3]; Stattic 1 μM, bvPLA2 1 μg/mL, 24 h, FIG. 21E) | Aβ1-42 level (ELISA) (Aβ1-42 in BV-2 cells)
Cc1ccc(S(=O)(=O)/C=C/C#N)cc1 [Bay 11-7802] | decreased | alleviated | decreased | – | – | – | –
O=[N+]([O-])c1ccc2c(c1)S(=O)(=O)C=C2 [Stattic] | – | – | – | decreased | decreased | decreased | 264.2 ± 4.384 pg/mg
